Measurements: patent US10166294B2, “Multifunctional forms of polyoxazoline copolymers and drug compositions comprising the same” (priority 2008, dated 2019)
Several values for one entry are separate records, joined by “and”; a condition that tells them apart may be missing. Identical values can stand only once. Like-named read-outs stand apart in the source and are kept apart here.

Key:
[1] = system: platinum resistant ovarian cancer cells (A2780/DDPt); details: for Days to 3 Times Tumor Weight: median; for T − C (tumor growth delay): median time to 3 times original size, drug group minus control; for Persistence of tumor growth delay profiles: FIGS. 2A and 2B, dotted lines
Protocol: Female athymic (Ncr:Nu) mice were implanted subcutaneously with A2780/DDPt tumor fragments and the tumors were allowed to reach a weight range of 163 to 189 mg. […] One group of animals was treated with cisplatin at a dose of 8 mg/kg. The control group received normal saline. The animals were weighed and the tumors measured twice weekly after administration of the first drug injection.

[2] = system: human colorectal cancer cells (HT-29); details: for Tumor Regression Complete / Tumor Regression Partial: n=10 mice; for Tumor Regression Complete: complete: unpalpable; for Tumor Regression Partial: partial: <50% of size on day 1; for T − C (tumor growth delay): median time to 2 times original size, drug group minus control; for Days to 2 Times Tumor Weight: median
Protocol: (§1) Female athymic (Ncr:Nu) mice were implanted subcutaneously with HT-29 tumor fragments and the tumors were allowed to reach a weight range of 162 to 188 mg. […] The control group received normal saline. The animals were weighed and the tumors measured twice weekly after administration of the first drug injection.

[3] = system: oropharyngeal carcinoma cancer cells (KB)
Protocol: as §1, with “KB” for “HT-29”, “160” for “162”, “190” for “188”

[4] = 40 mg/kg i.v. every fourth day x3
[5] = 60 mg/kg i.v. every fourth day x3
[6] = 90 mg/kg i.v. every fourth day x3
[7] = 40, 60 or 90 mg/kg i.v. every fourth day x3
[8] = all doses (40, 60, 90 mg/kg i.v.)
[9] = any of the doses (40, 60, 90 mg/kg)

N.N.[Cl][Pt][Cl] [Cisplatin]
Days to 3 Times Tumor Weight ([1]; 8 mg/kg): 8.9 days
T − C (tumor growth delay) ([1]; 8 mg/kg): 0.5 days

CCc1c2c(nc3ccc(OC(=O)N4CCC(N5CCCCC5)CC4)cc13)-c1cc3c(c(=O)n1C2)COC(=O)[C@]3(O)CC [Irinotecan]
Days to 3 Times Tumor Weight [1, 4]: 13.0 days
T − C (tumor growth delay) ([1]; 40 mg/kg): 4.6 days
Days to 3 Times Tumor Weight [1, 5]: 16.4 days
T − C (tumor growth delay) ([1]; 60 mg/kg): 8.0 days
Days to 3 Times Tumor Weight [1, 6]: 18.6 days
T − C (tumor growth delay) ([1]; 90 mg/kg): 10.2 days
Decrease in tumor growth compared to the control group ([1]; 40, 60, 90 mg/kg groups): did not show a statistically significant decrease
Maximum loss in body weight [1, 7]: 2%
Persistence of tumor growth delay profiles [1]: 14 days
Tolerability [1, 8]: well tolerated
Tumor Regression Complete [2, 4]: 0
Tumor Regression Partial [2, 4]: 0
T − C (tumor growth delay) ([2]; 40 mg/kg): 8.8 days
Days to 2 Times Tumor Weight [2, 5]: 21.4 days
Tumor Regression Complete [2, 5]: 0
Tumor Regression Partial [2, 5]: 0
Tumor Regression Complete [2, 6]: 0
Tumor Regression Partial [2, 6]: 0
Decrease in tumor growth compared to the control group ([2]; 40, 60, 90 mg/kg groups): did not show a statistically significant decrease
Maximum loss in body weight [2, 7]: 8%
Tolerability [2, 8]: well tolerated
Tumor regression [2, 9]: not observed
Tolerability [3, 8]: well tolerated
Tumor regression [3, 9]: not observed
Maximum loss in body weight ([3]; mouse, in vivo): 2%

H-(Irino.HCl)10(EOZ)190-T-Folate [Folate-POZ-irinotecan]
Complete tumor regression, share of mice ([3]; mouse, in vivo): 70% and 50%
Complete tumor regression, share of treated mice ([3]; mouse, in vivo): > 50%
Tumor growth delay (T-C value) compared to irinotecan ([3]; mouse, in vivo): significantly higher

H-(Irino.HCl)10(EOZ)200-T-PA [POZ-irinotecan]
Days to 3 Times Tumor Weight [1, 4]: 12.7 days
T − C (tumor growth delay) ([1]; 40 mg/kg): 4.3 days
Days to 3 Times Tumor Weight [1, 5]: 20.3 days
T − C (tumor growth delay) ([1]; 60 mg/kg): 11.9 days
Tumor growth delay (T-C value) compared to irinotecan ([1]; 90 mg/kg dose, p<0.001): significantly higher
Days to 3 Times Tumor Weight [1, 6]: 36.3 days
T − C (tumor growth delay) ([1]; 90 mg/kg): 27.9 days
Persistence of tumor growth delay profiles [1]: at least 32 days
Days to 2 Times Tumor Weight [2, 4]: 31.4 days
Tumor Regression Complete [2, 4]: 0
T − C (tumor growth delay) ([2]; 40 mg/kg): 23.4 days
Median Duration of Regression [2, 5]: 18 days
Days to 2 Times Tumor Weight [2, 5]: >60.0 days
Tumor Regression Complete [2, 5]: 1
T − C (tumor growth delay) ([2]; 60 mg/kg): >52 days
Median Duration of Regression [2, 6]: 25 days
Days to 2 Times Tumor Weight [2, 6]: >60.0 days
Tumor Regression Complete [2, 6]: 7
T − C (tumor growth delay) ([2]; 90 mg/kg): >52 days
Tumor growth delay (T-C value) compared to irinotecan ([2]; all 3 doses tested, p<0.001): significantly higher
